We go through three compounds from publication PMC9977398, “Next-generation membrane-active glycopeptide antibiotics that also inhibit bacterial cell division” (Chemical Science, 2023).

In one assay the test system is ΔamiAC MG1655 E. coli. Nature of the assay: Microscopy of ΔamiAC MG1655 E. coli. Format: cell-based. The following applies: sub-inhibitory concentrations: vancomycin 3 μM, VanQAmC10 2 μM (Fig. 5D). As to the method:
The bacterial amidases help cleave the septum in the final stage of cell division to produce daughter cells.[39] In the absence of amidases, chains of unseparated cells are formed (Fig. 5D). These retain distinct cytoplasmic compartments but share an outer membrane.[39] These cells are known to be hypersensitive to antibiotics and detergents. However, ΔamiAC mutations are resistant to killing by cephalexin.[38] The MIC of VanQAmC10 against the ΔamiAC mutant was reduced to 4 μM, while that of vancomycin was >10 μM. […] This is indicative of impaired cell division. Cell debris due to lysis after compound treatment are also visible. […]
from 10 μg/mL. The bacteria with compounds and untreated control were incubated for 18 h at 37 ̊C under shaking and OD600 was measured.
Microscopy of ΔamiAC MG1655 E. coli
ΔamiAC MG1655 was cultured overnight in LB media at 37 ̊C. […]
MRSA ATCC 33591 was grown to mid-log phase at 37 °C. […] The viable bacteria were then counted after 48 h incubation at 37 °C. […]
Antagonization of antibacterial activity of AAV-qC10 was determined by addition of 500 μM N,N՛-diacetyl–L-Lys–D-Ala–D-Ala or 100 μg/mL of lipoteichoic acid to serial dilutions of the test compound. The MIC was then determined against MRSA by measuring the OD600 18-24 […]
Vancomycin was chosen as control antibiotic for MRSA. The initial MIC values of VanQAmC10, vancomycin were determined against the respective bacteria. […]

In another assay the test system is B. subtilis. The assay can be described thus: BacLight assay (pore formation assay). The following applies: treatment at PEC. In kind it is cell-based. An excerpt:
To examine if the compounds form pores on the membrane, a mixture of the fluorescent dyes SYTO 9 and PI was used. While SYTO 9 penetrates both intact and permeabilized cells staining them green, PI is unable to cross the intact membrane and stains only permeabilized or dead cells red. Membrane-disrupting antibiotics such as nisin are known to form pores in the membrane is stained by both SYTO 9 and PI (Fig. 4D). […] Around 20% of the cells visualized post-treatment with both compounds were stained by PI and therefore permeabilized. […]
and the untreated control were carefully removed from the well, washed with 0.9 % saline, and placed on glass slides. The biofilms were then stained with 10 μL of SYTO9 (60μM) and imaged using a Zeiss 510 Meta confocal laser-scanning microscope. The orthogonal projections of the images were processed with LSM 5 Image examiner. […]
Overnight cultures of B. subtilis 168 were grown in 50 mL flasks in 5 mL BMM media. […] The MIC was determined as the lowest concentration at which no visible bacterial OD […]
Overnight cultures of B. subtilis 168 were grown in 50 mL flasks with 10 mL of media. […] The O.D. of the solutions are recorded every 30 minutes. […]
resuspended in prewarmed BMM media. […] The fluorescence in the GFP and Texas red channels was then observed under the microscope. […]

`CN[C@H](CC(C)C)C(=O)N[C@H]1C(=O)N[C@@H](CC(N)=O)C(=O)N[C@H]2C(=O)N[C@H]3C(=O)N[C@H](C(=O)N[C@H](C(=O)O)c4cc(O)cc(O)c4-c4cc3ccc4O)[C@H](O)c3ccc(c(Cl)c3)Oc3cc2cc(c3O[C@@H]2O[C@H](CO)[C@@H](O)[C@H](O)[C@H]2O[C@H]2C[C@](C)(N)[C@H](O)[C@H](C)O2)Oc2ccc(cc2Cl)[C@H]1O` [Vancomycin, reference compound]: in the assay with ΔamiAC MG1655 E. coli, the “morphology of ΔamiAC mutant” value is “few cells appear larger and bulky while most appear similar to the untreated bacteria”.
In the case of `CNC(CC(C)C)C(=O)NC1C(=O)NC(CC(N)=O)C(=O)NC2C(=O)NC3C(=O)NC(C(=O)NC(C(=O)NCCC[N+](C)(C)Cc4ccc(-c5ccccc5)cc4)c4cc(O)cc(O)c4-c4cc3ccc4O)C(O)c3ccc(c(Cl)c3)Oc3cc2cc(c3OC2OC(CO)C(O)C(O)C2OC2CC(C)(N)C(O)C(C)O2)Oc2ccc(cc2Cl)C1O` (stereo not shown) [VanQbiph (4)], the “pore formation (co-staining SYTO 9 and PI)” value in the assay on B. subtilis was “did not co-stain cells with both the dyes”.
Take `CCCCCCCCCCNC(=O)C[N+](C)(C)CCCNC(=O)C1NC(=O)C2NC(=O)C(NC(=O)C3NC(=O)C(CC(N)=O)NC(=O)C(NC(=O)C(CC(C)C)NC)C(O)c4ccc(c(Cl)c4)Oc4cc3cc(c4OC3OC(CO)C(O)C(O)C3OC3CC(C)(N)C(O)C(C)O3)Oc3ccc(cc3Cl)C2O)c2ccc(O)c(c2)-c2c(O)cc(O)cc21` (stereo not shown) [VanQAmC10 (8)]: the “pore formation (co-staining SYTO 9 and PI)” value with B. subtilis is “did not co-stain cells with both the dyes”. For the same compound, the “morphology of ΔamiAC mutant” value with ΔamiAC MG1655 E. coli is given as “larger cell phenotypes of variable sizes”.
